The record followed here is ChEMBL document CHEMBL1201862, “PubChem BioAssay data set” (2004).

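Results reflect a 48-hour exposure of cells in 96-well plates to compound at five concentrations. Abbreviation: GI50, concentration required for 50% inhibition of growth.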 Activity calls are given as the source filed them. No stated cut-off is given here; in the data, active = GI50 up to about 1.1 µM and inactive = higher.

Among the test systems are 786-0; MDA-MB-435; T47D; MDA-N; DLD-1; DMS-273; KM-20L2; LXFL 529; RXF 631.
Holding throughout (assay): NCI anticancer screen, dose series, 48 h

For `O=C1NCN(c2ccccc2)C12CCN(CCCSc1ccc(F)cc1)CC2`, the GI50 in the assay with 786-0 is 24.3 µM (inactive); in the assay with MDA-MB-435, 12.8 µM (inactive); in the assay with T47D, 28.6 µM (inactive).
For the compound `CC1OC2=N[C@@H]1C(=O)N[C@@H](Cc1ccccc1)C1=N[C@H](C(=O)N[C@@H](Cc3ccccc3)C3=N[C@H](C(=O)N[C@H]2Cc2ccccc2)C(C)O3)C(C)O1` (some centres undefined), the GI50 in the assay on MDA-MB-435 is 28 µM (inactive); with MDA-N, 43.2 µM (inactive); with T47D it was 31.1 µM (inactive).
As for `COc1cc(C2(c3ncc[nH]3)SSSCC2O)ccc1O` (centres undefined), the GI50 with DLD-1 was 58.5 µM (inactive); in the assay on DMS-273, 30.1 µM (inactive); in the assay on KM-20L2, > 92.5 µM (inactive).
Turning to `CC(=O)OCCCCn1cc(Cn2ccc(=O)n(Cc3cn(CCCCOC(C)=O)nn3)c2=O)nn1`, the GI50 with 786-0, in the assay with MDA-MB-435, with MDA-N and in the assay on T47D was > 100 µM (inactive) in each case.
For the compound `C=CS(=O)(=O)c1c2cc(OC)ccc2nc2ccc(OC)cc12`, the GI50 in the assay on 786-0 was 2.37 µM (inactive); in the assay on MDA-MB-435 it was 5.58 µM (inactive); in the assay on MDA-N, 3.5 µM (inactive); with T47D, 3.43 µM (inactive).
In the case of `NCCC1(N)CCNCC1`, the GI50 in the assay with 786-0, in the assay with MDA-MB-435, in the assay on MDA-N and with T47D was > 100 µM (inactive) in each case.
For `c1ccc(/N=C2\S/C(=N\C3CCCCC3)N(C3CCCCC3)\C2=N/c2ccccc2)cc1`, the GI50 with MDA-MB-435, with MDA-N and in the assay on T47D was > 100 µM (inactive) each time.
Consider `O=C1NCN(c2ccccc2)C12CCN(CCCN1CCN(CCOC(c3ccc(F)cc3)c3ccc(F)cc3)CC1)CC2`, for which the GI50 is 1.63 µM (inactive) in the assay on 786-0, 1.76 µM (inactive) in the assay on MDA-MB-435, 1.82 µM (inactive) with MDA-N and 1.58 µM (inactive) with T47D.
The like results for `CC(C)=CCC/C(C)=C/CCC(C(=O)COCc1ccccc1)P1(=O)OC(C)(C)CN1C(C)(C)C` (centres undefined) were, in that order, 48.3 µM (inactive), 51.4 µM (inactive), > 100 µM (inactive) and 31.8 µM (inactive).
Take `Nc1nc(N)c2c(n1)NC(=O)c1c(c3ccccc3n1Cc1ccc(Cl)cc1)C2`: the values for the GI50 with MDA-MB-435, with MDA-N and with T47D were 18.8 µM (inactive), 16.6 µM (inactive) and 16.8 µM (inactive), respectively.
For the compound `Clc1nc(Cl)nc(Nc2cccc3ccccc23)n1`, the GI50 with MDA-MB-435, in the assay with MDA-N and in the assay on T47D was > 10 µM (inactive) in each case.
As to `O=C1CCCCC[C@]12SC[C@H]1CON=C12`, the values for the GI50 in the assay on 786-0, with MDA-MB-435 and with MDA-N were 34 µM (inactive), 16.7 µM (inactive) and 12.5 µM (inactive), respectively.
Take `COc1ccc(C(=O)Cc2ccc(Cl)cc2)cc1OC`: the GI50 with DLD-1, with DMS-273, in the assay with KM-20L2, with LXFL 529 and in the assay on RXF 631 was > 100 µM (inactive) in each case.
Turning to `CC1(C)COC(/C=C/C2=NC(C)(C)CO2)=N1`, the GI50 is 23.7 µM (inactive) in the assay on MDA-MB-435, 20.1 µM (inactive) in the assay with MDA-N and 8.75 µM (inactive) in the assay with T47D.
For `COc1ccc(C2C(Cl)C(=O)N2NC(=O)c2ccccc2O)cc1` (centres undefined), the GI50 in the assay on KM-20L2 and in the assay with LXFL 529 was > 100 µM (inactive) each time.
As for `CC(=O)NNc1nc(C)c(C(=O)NNC(=O)C(=O)Nc2cccc(C(C)=O)c2)s1`, the GI50 with DLD-1 was 28.1 µM (inactive); in the assay with DMS-273, 34.8 µM (inactive); with KM-20L2, 59 µM (inactive); with RXF 631, 26.6 µM (inactive).
Take `COC(=O)c1c(O)ccc2c1c1c(n2Cc2cccc(C)c2)C(=O)c2ccccc2C1=O`: the GI50 with 786-0 is 11.9 µM (inactive); in the assay on MDA-MB-435, 9.82 µM (inactive); in the assay on MDA-N, 13.1 µM (inactive); in the assay with T47D, 1.94 µM (inactive).
Consider `COC(=O)[C@H](CC(C)C)NC(=O)[C@H](Cc1ccccc1)N1CC2C=CC1C2` (some centres undefined), for which the GI50 in the assay with 786-0, in the assay with DMS-273, with KM-20L2 and in the assay with LXFL 529 was > 100 µM (inactive) throughout.
As for `C=CCN(N=O)C(=O)N(CCC)CCCCC(NC(C)=O)C(=O)NCc1ccccc1` (centres undefined), the GI50 in the assay with 786-0 is > 100 µM (inactive); in the assay on DMS-273 it was > 100 µM (inactive); in the assay with KM-20L2, 91.6 µM (inactive); with LXFL 529 it was 62.5 µM (inactive); in the assay on RXF 631 it was > 100 µM (inactive).
Take `O=C1CSC(c2c(O)ccc3ccccc23)N1n1c(S)nnc(/C=C/c2c(O)ccc3ccccc23)c1=O` (centres undefined): the GI50 in the assay on 786-0 is 0.662 µM (active); in the assay with MDA-MB-435, 0.966 µM (active); in the assay with MDA-N, 4.05 µM (inactive); with T47D it was 0.59 µM (active).
On to `O=C(O)CNS(=O)(=O)c1ccc(NC(=O)Nc2ccccc2)cc1`, for which the GI50 with DLD-1, with DMS-273 and in the assay with KM-20L2 was > 100 µM (inactive) in each case.
Consider `COC(=O)c1c(O)ccc2c1c1c(n2Cc2cccc(C)c2)C(=O)c2ccccc2C1`, for which the GI50 was 11.4 µM (inactive) in the assay on MDA-MB-435 and 0.348 µM (active) in the assay with T47D.
In the case of `COC(=O)C1CCC(=O)N1C(=O)Cc1ccc(OC)cc1` (centres undefined), the GI50 in the assay on DMS-273, in the assay on KM-20L2 and in the assay on LXFL 529 was > 100 µM (inactive) throughout.
As to `Cn1ccnc1C(O)(c1nccn1C)c1nccn1C`, the GI50 with DLD-1 and with LXFL 529 was > 100 µM (inactive) throughout.
`CC(C)C1NC(=O)CC(c2ccccc2)N(N=O)C1c1ccccc1` (centres undefined): the GI50 in the assay on DLD-1, in the assay with DMS-273 and with KM-20L2 was > 100 µM (inactive) in each case.
Consider `C=CCOC1=C(OCC=C)C(C2COC(C)(C)O2)OC1=O` (centres undefined), for which the GI50 with 786-0 is 67 µM (inactive); with MDA-MB-435, > 100 µM (inactive); with MDA-N it was > 100 µM (inactive); in the assay with T47D, > 100 µM (inactive).
Regarding `O=C1C2=C(C3=NCCc4c[nH]c1c43)c1c(Br)cc(Br)cc1CCN2`, the results for the GI50 with DLD-1, in the assay with DMS-273 and with KM-20L2 were 1.79 µM (inactive), 3.12 µM (inactive) and 2.75 µM (inactive), respectively.
On to `CCCCP1(=O)C=CC(Cl)=C(C)C1` (centres undefined), for which the GI50 with 786-0, in the assay on DLD-1, in the assay with KM-20L2 and in the assay with LXFL 529 was > 100 µM (inactive) in each case.
Turning to `c1ccc(COC2(OCc3ccccc3)CC3OC2C2NN=NC32)cc1` (centres undefined), the GI50 with 786-0 was 20 µM (inactive); with DLD-1, 15.8 µM (inactive); with DMS-273, 21.2 µM (inactive); in the assay with KM-20L2 it was 54.6 µM (inactive); with LXFL 529, 15.3 µM (inactive).
For the compound `COc1cc(C2c3cc4c(cc3OC3(O)COC(=O)C23)OCO4)cc(OC)c1OC` (centres undefined), the GI50 was 45.9 µM (inactive) in the assay on DLD-1; 36.5 µM (inactive) with DMS-273; 24.3 µM (inactive) with KM-20L2; 39.8 µM (inactive) with LXFL 529; 49.3 µM (inactive) in the assay on RXF 631.
Take `Cc1c2cc[n+](Cc3ccc(I)cc3)cc2c(C)c2c1[nH]c1ccccc12`: the GI50 in the assay on DLD-1 is 0.94 µM (active); with DMS-273, 0.506 µM (active); in the assay with KM-20L2, 0.748 µM (active).
As to `O=C1C(Cl)=C(c2ccc([N+](=O)[O-])cc2)C(=O)c2c(O)cccc21`, the GI50 in the assay on 786-0 is 3.15 µM (inactive); in the assay with DLD-1, 1.16 µM (inactive); in the assay with DMS-273, 4.06 µM (inactive); with LXFL 529 it was 0.273 µM (active); in the assay on MDA-MB-435 it was 2.05 µM (inactive); in the assay with MDA-N, 2.49 µM (inactive). In the assay on T47D, the GI50 was 2.37 µM (inactive).
Consider `CC1(C)CCC(C)(C)c2c1ccc(O)c2Cc1c(O)ccc2c1C(C)(C)CCC2(C)C`, for which the GI50 in the assay with 786-0 was 1.92 µM (inactive); in the assay with MDA-MB-435, 1.87 µM (inactive); with MDA-N, 1.92 µM (inactive); in the assay with T47D, 1.87 µM (inactive).
For `Cc1nc(-c2cccnc2)sc1C(=O)CC(=O)C(=O)Nc1cccc(NC(=O)C(=O)CC(=O)c2sc(-c3cccnc3)nc2C)n1`, the GI50 in the assay on 786-0, with MDA-MB-435, in the assay on MDA-N and with T47D was > 100 µM (inactive) throughout.
